# Key:
# Type in all cases: cell-based
# [1] = system: RAW264.7 macrophage cells; assay: Optically activated migration of RAW264.7 cells; settings: 10 μM
# Protocol: FIGS. 13A-13B: The in vitro effect of TPH104 on the migratory and invasive properties of MDA-MB231 TNBC cells using the wound healing assay. […] Control cells were incubated with 11-cis retinal (50 μM) for 5 minutes in the dark. A confined optical input of 445 nm was placed in-front of cells using a user-defined region of interest (ROI) and optically activated (OA) continuously in the direction of cell migration pathway for 20 minutes (OA=blue box). Cells were incubated with 10 μM of TPH104 for 30 minutes, followed by incubation with 11-cis retinal (50 μM) for 5 minutes in the dark. Scale=5 μm.
# To further confirm the anti-migratory effect of TPH104, RAW264.7 macrophage cells were incubated with 10 μM TPH104 and its effect on Gai-coupled-GPCR activation was determined.
# BT-20 or MDA-MB468 cells = assay: Cellular reactive oxygen species (ROS) detection assay (H2DCFDA); settings: 1, 2, and 5 μM, 12 h
# Protocol: To assess the effect of TPH104 on the generation of ROS, a cell permeant, fluorogenic dye, 2′,7′-dichlorofluorescin diacetate, H2DCFDA, was used. A 5 mM stock solution was prepared using DMSO and PBS was used to prepare the 3 μM working solution of H2DCFDA. The TNBC cells were seeded in a 6-well plate as described in the cell cycle assay. After overnight incubation, cells were incubated with different TPH104 (1, 2, 5 μM) or vehicle for 12 h or with 2 μM of paclitaxel (positive control) for 2 h. The H2DCFDA dye (3 μM) was added to each well and the plate was incubated for an additional 30 minutes. Subsequently, cells were washed 3 times in PBS to remove excess H2DCFDA dye. Thereafter, cells from each well were captured from randomly selected fields using a fluorescent microscope (EVOS-FLC cell imaging system, Thermofisher scientific) at 40× to determine the 2′,7′-dichlorofluorescein (DCF) fluorescence intensity, which is positively correlated with the generation of ROS.
# [2] = system: BT-20 and MDA-MB468 cells; assay: Mitochondrial membrane potential assay (MitoTracker Red / Alexa Fluor 488 annexin V); settings: 0.5, 1, and 2 μM
# Protocol: This assay is a direct measure of the structural integrity of mitochondria. Cells were seeded as indicated in the cell cycle assay and incubated for 24 h at 37° C. The next day, TPH104 (0.5, 1, 2 μM) or vehicle and incubated with the cells for 12 h. The cells were harvested, washed 2× with PBS, counted, and their concentrations were adjusted to 5×10^6 cells/well in the culture medium. Subsequently, 4 μl of the 10 μM solution of mitotracker red was added to each 1 ml aliquot of cells and incubated with the cells for 30 minutes at 37° C. The cells were washed 2× with PBS and re-suspended in the 100 μl of 1× annexin-binding buffer. The cells were stained with Alexa Fluor for 15 minutes and analyzed using flow cytometry as described in the manufacturer protocol (Thermofisher, USA).
# MDA-MB468 and MDA-MB231 = assay: Cell cycle analysis (PI, flow cytometry); settings: 0.5, 1, 2 μM, 12 h
# Protocol: The cell cycle analysis was performed to evaluate the effect of TPH104 on the normal cell cycle in the TNBC cell lines (i.e. MDA-MB 468, MDA-MB231 and BT-20). Cells were plated in a 6-well plate at a suitable density as previously described and incubated overnight to allow for cell attachment. The following day, cells were incubated with different TPH104 concentrations (0.5, 1, or 2 μM) or vehicle for 12 h. The cells were harvested by trypsinization and collected in individual test tubes. Subsequently, cells were washed 3× with ice cold PBS and fixed with 70% ethanol for 30 minutes. Following fixation, cells were again washed 3× with intermittent centrifugation at 2000 rpm for 5 minutes and incubated with 100 μl RNAse (from a 100 μg/ml stock) (to ensure that only DNA was stained). Two hundred μl of PI (from a 50 μg/ml stock solution) was added to each test tube and cells were stain cells for at least 15 minutes on ice. Finally, a FACS Calibur flow cytometer (BD Biosciences, San Jose, CA) was used to detect the distribution of the cells following incubation with vehicle or TPH104. FlowJo v10.2 software from FlowJo LLC (Ashland, OR) was used for data analysis.
# [3] = system: normal human mammary epithelial cells (HMEC); assay: MTT cell viability assay, HMEC
# Protocol: The following cancer and non-cancer cell lines were used in the initial cytotoxicity screening of the TPH104 compounds: triple negative breast cancer (TNBC): MDA-MB468, MDA-MB 231, and BT-20; non-TNBC: MCF-7 and ZR-75-1; ovarian: Ov2008; prostate: DU145; colon: HCT-116, S1, and LOVO; lung: H460; normal kidney: HEK-293; normal breast: HMEC; and normal colon: CRL-1459. All cells were cultured in Dulbecco's modified Eagle medium (DMEM), supplemented with 10% fetal bovine serum (FBS), and 1% penicillin/streptomycin (P/S). Cells were allowed to grow as adherent monolayers in T25 flasks in a humidified incubator with 5% CO2 at 37° C. for a period of 24 h, unless otherwise specified for certain experiments.
# The MTT assay was used to determine the cytotoxicity of all of the compounds. Briefly, in a 96-well flat-bottom cell culture plate, the cells were seeded at a density between 3-5×10^3 cells/well (180 μl in each well) and incubated for 24 h (a hemocytometer was used for cell counting). The next day, the cells were incubated with different concentrations of the nine compounds (0, 0.1, 0.3, 1, 3, 10, 30, and 100 μM) for 72 h. After 72 h, 20 μl of 5 mg/ml of 3-(4,5-dimethylthiazol-2-yl)-2,5-diphenyltetrazolium bromide (MTT) was added to the plate and incubated with the cells for 3 h at 37° C. In this experiment, the living cells will reduce the soluble MTT dye to non-soluble purple formazan crystals. Following incubation, the media containing MTT removed via suction and 100 μL of 100% dimethyl sulfoxide (DMSO) was added to dissolve the formazan crystals. Subsequently, the plate was shaken for 2 minutes and the absorbance was measured at a wavelength of 570 nm using a SpectraMax iD3 Multi-Mode Microplate Reader (Molecular Devices, Sunnyvale, CA). The IC50 values of each compound were calculated and used to determine the selectivity ratio (IC50 in normal cells/IC50 in cancer cells) of each compound as previously described. Based on the results obtained from these experiments, the compound TPH104, which had the lowest IC50 value, was selected for further experiments.
structure (smiles),measurement,setting,value
COc1ccc(O)c(/C=N/Nc2ncnc3scc(-c4ccc(C)cc4)c23)c1 [TPH104],migration of RAW264.7 cells,[1],significantly decreased
same,DCF fluorescence levels (ROS),BT-20 or MDA-MB468 cells,did not significantly alter
same,mitochondrial membrane potential,[2],did not significantly alter
same,"number of cells in the second quadrant (Q2), apoptotic cells",[2]; flow cytometry,did not significantly alter
same,level of cells arrested in the S phase,MDA-MB468 and MDA-MB231,significantly increased
same,number of cells in the G1 phase,MDA-MB468 and MDA-MB231,significant reduction
same,selectivity fold on TNBC cells compared to normal human mammary epithelial cells,[3],more than 100 fold
same,"IC50 for HMEC, fold higher than the IC50 values for TNBC cells",[3]; HMEC vs TNBC cells,330-411 fold
same,IC50,"[3]; Homo sapiens, HMEC, MTT, 72 h, Normal, read-out: IC50 ± SD, HMEC",82.3 µM

# From patent US12390467B2, “Necroptosis inducers or autophagy inhibitors or a combination thereof” (The University of Toledo, priority 2018, dated 2025)
